Values after ≈ are worked out from the molar mass of the structure shown. Values joined by “and” are separate entries in the source; they are usually repeats but may differ in a detail not shown here. Equal entries are not always repeated. Where two headings read alike, the source gives them in different places.
How the values were obtained:
MCF-7 cells = assay: Cytotoxicity to MCF-7 cells with or without 25 μM dicoumarol (sulforhodamine B assay); format: cell-based, human; details: for IC50: Homo sapiens; for Fold Protection of MCF7 cells w/ 25 μM dicoumarol: Table 1
Experimental: The NQO1-dependent cytotoxicity of the first set of derivatives was determined in MCF-7 cells which express high levels of NQO1. Cells were exposed to DNQ for 2 hours in the presence or absence of 25 μM DIC. The media was then removed and cells were washed once with media then fresh media was added and the cells were incubated for 72 hours. Cell death was assessed using the sulforhodamine B assay previously described. […] Substitution off the nitrogen appeared well tolerated (4-14 and 4-15).
The DNQ derivatives synthesized were assayed for their toxicity to MCF-7 cells with or without DIC. The data from these experiments is organized in Table 4.2. […] This tolerance of sterically-demanding substituents corresponds with a flexible and promiscuous NQO1 active site. The poor activity of hydroxyl derivative 4-41 may be a result of either poor binding with the largely hydrophobic NQO1 active site or with an excessively strong substrate-enzyme interaction because of hydrogen bonding.

NQO1 = NQO1 (Homo sapiens, UniProt P15559); assay: NQO1 enzymatic measurements in vitro; format: biochemical; details: 1 μM substrate
Experimental: As further evidence that the activity of these DNQ derivatives is dependent on their ability to be reduced by NQO1, full enzymatic measurements in vitro were performed. We found a strong correlation between catalytic efficiency of substrates in vitro and their cell culture toxicity. […] This provides strong evidence that the cytotoxicity of DNQ and its derivatives are dependent primarily upon the activity of NQO1 within the cell.

[1] = Aqueous solubility in pH 7.4 PBS by LC-MS; format: physicochemical; details: phosphate buffered saline, pH 7.4, aqueous buffer, thermodynamic from solid, PBS pH 7.4; Table 4.3
Experimental: The aqueous solubility of DNQ at pH 7.4 in phosphate buffered saline (PBS) was measured by LC-MS. DNQ was sonicated for 30 minutes in PBS then undissolved solid was removed by filtration through a 0.45 μm syringe filter and the filtrate was analyzed by LC-MS (λ=275 nm, ESI-TOF in negative mode). The optimal sonication time was determined by sonicating DNQ for 1, 5, 10, and 30 minutes. While the concentration of DNQ in solution increased substantially between 1, 5, and 10 minutes, there was only a minor difference between 10 and 30 minutes. During the 30 minute sonication the water bath warmed to 45° C. (samples were cooled to room temperature before filtration). A calibration curve was generated from 1-100 μM by dissolving DNQ in methanol to a concentration of 500 μM and making dilutions of this stock in 80:20 water:methanol. The calibration curve (measure by UV absorbance) was linear over this range; 1 μM was approximately the limit of detection. […] The solution was very pale yellow.
The aqueous solubility of the compounds was determined by an LC-MS assay as described in the specification above. We applied the calibration curve generated for DNQ to the derivatives under the assumption that the UV profile of the derivatives of DNQ would be similar to that of DNQ.
After sonication and filtration most of the aqueous solutions were colorless. The solutions of DNQ, 4-31, and 4-37 were faintly yellow while 4-8, 4-14 and 4-41 were substantially more colored. The solution of 4-8, 4-14 and 4-41 were diluted 10-fold with PBS prior to LC-MS analysis to ensure that the concentrations fell within the range of the calibration curve.

[2] = Solubility in 20% HPβCD solution (pH modulation protocol); format: physicochemical; details: 20% HPβCD in pH 7.4 PBS, pH 7.4, aqueous with cosolvent or surfactant or cyclodextrin, thermodynamic from solid; 20% HPβCD; Table 4.3
Experimental: The protocol for formulating DNQ compounds in HPβCD is as follows: the DNQ compound is slurried in a 20% solution of HPβCD in pH 7.4 PBS and the pH is then increased by the addition of 10 M NaOH to induce dissolution of the DNQ compound. The pH is returned to pH 7.5-8.0 by the careful addition of 1 M HCl. A 3.3 mM solution of the DNQ compound can be made by this method which is stable at least 24 hours. This represents a 30-fold increase in solubility of DNQ over PBS alone.
Although we were pleased to find active derivatives of DNQ that were up to 4-fold more soluble in water—sufficiently soluble for continuous IV infusion for human administration—this level of solubility was insufficient for animal studies by bolus injection. […] We used the same pH modulation protocol outlined for DNQ described in the specification above. The results are organized in Table 4.3 and FIG. 8. While all compounds were more soluble in HPβCD than in buffer alone, the fold increase in solubility varied widely.

[3] = Solubility in organic solvents; format: physicochemical; details: for solubility: organic solvent or mixture, thermodynamic from solid
Experimental: The solubility of DNQ derivatives in organic solvents was determined by measuring the amount of a given solvent required to dissolve a known amount of compound. Solvent was added to the compound in 50 μL aliquots and the slurry was sonicated. […] Solubility was assessed in DMSO, dichloromethane, and 33% methanol in dichloromethane (FIGS. 9, 10, and 11, respectively).

[4] = Maximum tolerated dose in mice; details: mouse, in vivo, ip
Text: Because of the difficulty of repeated tail vein injections in mice, our group is using IP administration of compound.
All of these derivatives are currently being assessed for their maximum tolerated dose (MTD) in healthy mice. Compounds are formulated in HPβCD and delivered by IP injection to two mice once daily for five days.

[5] = Solubility in organic solvents; format: physicochemical; details: organic solvent or mixture, thermodynamic from solid; THF; Table 1
[6] = MCF7, Table 1, read-out: MCF7 IC50
[7] = MCF7, Table 4.2, no DIC, ± s.e., read-out: IC50 vs. MCF-7 cells
[8] = MCF7, classification in figure legends of FIGS. 7-11, read-out: IC50 ("active" / generally "inactive" compounds)
[9] = MCF7, read-out: IC50 vs. MCF-7 cells +25 μM DIC, Table 4.2, +25 μM DIC, ± s.e.
[10] = 2:1 CH2Cl2:MeOH, Table 4.3, read-out: Solubility in 2:1 CH2Cl2:MeOH
[11] = CH2Cl2:MeOH 2:1, Table 1, read-out: CH2Cl2:MeOH 2:1 solubility
[12] = CH2Cl2, Table 1, read-out: CH2Cl2 solubility
[13] = DMSO, Table 1, read-out: DMSO solubility
[14] = MCF7, 2 h, Table 4.1, 2 h exposure, no DIC, ± s.e., read-out: IC50 vs. MCF-7 cells
[15] = MCF7, read-out: IC50 vs. MCF-7 cells +25 μM DIC, Table 4.1, +25 μM DIC, ± s.e.
[16] = CH2Cl2, Table 4.3, read-out: Solubility in CH2Cl2
[17] = DMSO, Table 4.3, read-out: Solubility in DMSO

Chain of NQO1 (P15559 whole entry): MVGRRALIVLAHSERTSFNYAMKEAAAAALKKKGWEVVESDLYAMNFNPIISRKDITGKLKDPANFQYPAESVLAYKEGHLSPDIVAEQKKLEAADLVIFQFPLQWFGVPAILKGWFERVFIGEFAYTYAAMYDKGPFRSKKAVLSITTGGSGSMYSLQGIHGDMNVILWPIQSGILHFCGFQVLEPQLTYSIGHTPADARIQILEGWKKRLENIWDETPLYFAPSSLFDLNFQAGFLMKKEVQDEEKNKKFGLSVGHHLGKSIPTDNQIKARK

SMILES	IC50 (MCF-7 cells; [6]) [nM]	IC50 (MCF-7 cells; [7]) [nM]	IC50 (MCF-7 cells; [8]) [nM]	IC50 (MCF-7 cells; [9]) [nM]	Fold Protection of MCF7 cells w/ 25 μM dicoumarol (MCF-7 cells)	Fold protection by DIC (MCF-7 cells; Table 4.2)	NQO1 Initial Velocity @ 1 μM (NQO1)	solubility at 30 min [1] [mM]	solubility [2] [mM]	Solubility in CH2Cl2 ([3]; CH2Cl2, Table 4.3) [mM]	Solubility in DMSO ([3]; DMSO, Table 4.3) [mM]	solubility [3, 10] [mM]	solubility [3, 11] [mM]	solubility [3, 12] [mM]	solubility [3, 13] [mM]	MTD at 5 days [4]	solubility [5] [mM]	other results
Cc1cc(=O)[nH]c2c1C(=O)c1c(C)cc(=O)n(CC(C)(C)C)c1C2=O [Compound 9-253]	110 ± 40	230 ± 10	< 500	2100 ± 700	9	8.9	1700 ± 100	0.024 (≈ 8.17 µg/mL)	9.4 (≈ 3200 µg/mL)	23 (≈ 7830 µg/mL)	16 (≈ 5450 µg/mL)	100 (≈ 34000 µg/mL)	100 (≈ 34000 µg/mL)	23 (≈ 7830 µg/mL)	16 (≈ 5450 µg/mL)	≥ 15 mg/kg and ≥ 44 µmol/kg	20 (≈ 6810 µg/mL)	–
CCCCCn1c2c(c(C)cc1=O)C(=O)c1c(C)cc(=O)[nH]c1C2=O [Compound 9-255]	190 ± 10	200 ± 10	< 500	2000 ± 900	11	10	1700 ± 40	< 0.005	5 (≈ 1700 µg/mL)	22 (≈ 7490 µg/mL)	17 (≈ 5790 µg/mL)	95 (≈ 32300 µg/mL)	95 (≈ 32300 µg/mL)	22 (≈ 7490 µg/mL)	17 (≈ 5790 µg/mL)	≥ 15 mg/kg and ≥ 44 µmol/kg	16 (≈ 5450 µg/mL)	–
Cc1cc(=O)[nH]c2c1C(=O)c1c(C)cc(=O)n(CCC(C)C)c1C2=O [Compound 9-249]	150 ± 30	180 ± 30	< 500	1800 ± 500	12	10	2100 ± 90	0.006 (≈ 2.04 µg/mL)	4.7 (≈ 1600 µg/mL)	9.7 (≈ 3300 µg/mL)	8.6 (≈ 2930 µg/mL)	58 (≈ 19700 µg/mL)	58 (≈ 19700 µg/mL)	9.7 (≈ 3300 µg/mL)	8.6 (≈ 2930 µg/mL)	15 mg/kg and 44 µmol/kg	8.8 (≈ 3000 µg/mL)	–
CCn1c2c(c(C)cc1=O)C(=O)c1c(C)cc(=O)[nH]c1C2=O [Compound 109]	530	–	< 500	–	4.5	–	1500 ± 100	0.319 (≈ 95.2 µg/mL)	5.7 (≈ 1700 µg/mL)	9.5 (≈ 2830 µg/mL)	24 (≈ 7160 µg/mL)	19 (≈ 5670 µg/mL)	19 (≈ 5670 µg/mL)	9.5 (≈ 2830 µg/mL)	24 (≈ 7160 µg/mL)	10 mg/kg and 35 µmol/kg	18 (≈ 5370 µg/mL)	IC50 (MCF-7 cells; [14]): 200 ± 10 nM; IC50 (MCF-7 cells; [15]): 3400 ± 200 nM; Fold protection by DIC (MCF-7 cells; Table 4.1): 17
CCCCCCn1c2c(c(C)cc1=O)C(=O)c1c(C)cc(=O)[nH]c1C2=O [Compound 9-257]	260 ± 40	290 ± 40	< 500	3000 ± 600	11	10	1850 ± 60	< 0.005	6 (≈ 2130 µg/mL)	32 (≈ 11300 µg/mL)	18 (≈ 6380 µg/mL)	140 (≈ 49600 µg/mL)	140 (≈ 49600 µg/mL)	32 (≈ 11300 µg/mL)	18 (≈ 6380 µg/mL)	≥ 16 mg/kg and ≥ 44 µmol/kg	27 (≈ 9570 µg/mL)	–
CCCCn1c2c(c(C)cc1=O)C(=O)c1c(C)cc(=O)[nH]c1C2=O [Compound 4-22]	270	270 ± 40	< 500	1500 ± 400	5.5	5.5	2100 ± 300	0.017 (≈ 5.55 µg/mL)	4 (≈ 1310 µg/mL)	7.6 (≈ 2480 µg/mL)	10 (≈ 3260 µg/mL)	30 (≈ 9790 µg/mL)	30 (≈ 9790 µg/mL)	7.6 (≈ 2480 µg/mL)	10 (≈ 3260 µg/mL)	–	6.1 (≈ 1990 µg/mL)	–
CCCn1c2c(c(C)cc1=O)C(=O)c1c(C)cc(=O)[nH]c1C2=O [Compound 10-41]	120 ± 10	–	< 500	–	10	–	1590 ± 70	0.039 (≈ 12.2 µg/mL)	6.3 (≈ 1970 µg/mL)	3.9 (≈ 1220 µg/mL)	8.9 (≈ 2780 µg/mL)	32 (≈ 9990 µg/mL)	32 (≈ 9990 µg/mL)	3.9 (≈ 1220 µg/mL)	8.9 (≈ 2780 µg/mL)	≥ 14 mg/kg and ≥ 44 µmol/kg	3.4 (≈ 1060 µg/mL)	IC50 (MCF-7 cells; [14]): 130 ± 10 nM; IC50 (MCF-7 cells; [15]): 1300 ± 400 nM; Fold protection by DIC (MCF-7 cells; Table 4.1): 10
Cc1cc(=O)[nH]c2c1C(=O)c1c(C)cc(=O)n(CC3CC3)c1C2=O [Compound 4-37]	–	220 ± 10	< 500	1400 ± 200	–	6.1	–	0.114 (≈ 37 µg/mL)	4.3 (≈ 1390 µg/mL)	–	–	51 (≈ 16500 µg/mL)	–	–	–	–	–	solubility [3, 16]: 13 mM (≈ 4220 µg/mL); solubility [3, 17]: 25 mM (≈ 8110 µg/mL)
Cc1cc(=O)[nH]c2c1C(=O)c1c(C)cc(=O)n(C(C)C)c1C2=O [Compound 4-30]	–	240 ± 20	< 500	2100 ± 800	–	8.6	–	0.041 (≈ 12.8 µg/mL)	3.7 (≈ 1160 µg/mL)	–	–	79 (≈ 24700 µg/mL)	–	–	–	–	–	solubility [3, 16]: 5.6 mM (≈ 1750 µg/mL); solubility [3, 17]: 21 mM (≈ 6560 µg/mL)
